Source: the RepoRT retention time repository (doi:10.1007/s00216-013-6954-6)

Assay: RP, Waters ACQUITY UPLC HSS T3, 150 × 2.1 mm, 1.8 µm; A: water + 0.1% formic acid; B: acetonitrile + 0.1% formic acid; gradient (min/%B) 0/5 1/5 16/95 18/95
Conditions: stereoisomer not certain

| SMILES | LC retention time |
| --- | --- |
| COC1C(O)C(CO)OC1n1cnc2c(N)ncnc21 (centres undefined) | 1.1 min |
| Nc1ncnc2c1ncn2C1CC(O)C(CO)O1 (centres undefined) | 0.8 min |

Assay: RP, Waters ACQUITY UPLC HSS T3, 100 × 1 mm, 1.8 µm; A: water + 0.1% formic acid, pH 3; B: acetonitrile + 0.1% formic acid, pH 3; gradient (min/%B) 0/5 1/5 16/95 18/95 20/5
Conditions: stereoisomer not certain

| SMILES | LC retention time |
| --- | --- |
| COC1C(O)C(CO)OC1n1cnc2c(N)ncnc21 (centres undefined) | 1.1 min |
| CC(C)CC(N)C(=O)N1CCCC1C(=O)O (stereo not drawn) [H-Leu-Pro-OH] | 2.6 min |
| O=C(O)CCCCC(=O)O [Adipic acid] | 2.33 min |
| CC(C)CC(NC(=O)C(N)Cc1ccc(O)cc1)C(=O)O (stereo not drawn) [H-Tyr-Leu-OH] | 3.2 min |
| O=C(O)CNC(=O)c1ccccc1 [Hippuric acid] | 3.39 min |
| CCCCCCCCC=CCCCCCCCC(=O)OCC(O)COP(=O)([O-])OCC[N+](C)(C)C (centres undefined) [lysoPC(18:1(9Z)/0:0)] | 12 min |
| O=C1CCC(C(=O)O)N1 (centres undefined) [Pyroglutamic acid] | 0.687 min |
| COc1cc2ccc(=O)oc2cc1O [Scopoletin] | 4.5 min |
| Nc1nc2c(ncn2C2OC(CO)C(O)C2O)c(=O)[nH]1 (centres undefined) [Guanosine] | 1.1 min |
| CC(CCC(=O)O)C1CCC2C3C(O)CC4CC(O)CCC4(C)C3CCC12C (centres undefined) [Chenodeoxycholic acid] | 10.5 min |
| COc1cccc2[nH]cc(CN)c12 [4-MeO-I3CH2NH2] | 3.2 min |
| CCC(C)C(N)C(=O)NC(CC(C)C)C(=O)O (stereo not drawn) [H-Ile-Leu-OH] | 3.4 min |
| COc1cc2ccc(=O)oc2cc1OC1OC(CO)C(O)C(O)C1O (centres undefined) [Scopolin] | 3.3 min |
| CCC(C)C(N)C(=O)NC(Cc1ccccc1)C(=O)O (stereo not drawn) [H-Ile-Phe-OH] | 3.9 min |
| CCC(C)C(N)C(=O)O (centres undefined) [Isoleucine] | 0.795 min |
| CC(CCC(=O)O)C1CCC2C3C(O)CC4CC(O)CCC4(C)C3CC(O)C12C (centres undefined) [Cholic acid] | 8.94 min |
| O=C(O)CCCCCC(=O)O [Pimelic acid] | 3.47 min |
| COc1cc(C=CCO)cc(OC)c1OC1OC(CO)C(O)C(O)C1O (centres undefined) [Syringin] | 3.2 min |
| Nc1ncnc2c1ncn2C1CC(O)C(CO)O1 (centres undefined) | 0.8 min |
| NC(=O)NCCCC(N)C(=O)O (centres undefined) [Citrulline] | 0.457 min |
| O=C(O)CCCCCCCC(=O)O [Azelaic acid] | 5.35 min |
| CCCCCCCCCCCCCCCC(=O)OCC(O)COP(=O)([O-])OCC[N+](C)(C)C (centres undefined) [lysoPC(16:0/0:0)] | 11.6 min |
